Experiment: Antioxidation activity by DPPH method
Settings: 50 μg/ml, positive control
Procedure: 7) Antioxidation activity measurement test: The antioxidation activity of each sample was measured by a DPPH method using 1.1-diphenyl-2-picrylhydrazyl. The positive control group was treated with BHT at a concentration of 50 μg/ml.

`Cc1cc(C(C)(C)C)c(O)c(C(C)(C)C)c1` [BHT] gave a DPPH inhibition of 10%.

Source: patent US20220095663A1, “COMPLEX MUSHROOM MYCELIUM COMPOSITION HAVING LIVER FUNCTION-IMPROVING ACTIVITY AND PREPARATION METHOD THEREFOR” (GIUNCHAN CO., LTD., priority 2019, published 2022)
